These results are taken from patent US12129312B2, “Peptide compound, application thereof and composition containing same” (priority 2017, dated 2024).

Each structure is given as a SMILES string. Read-outs that look alike come from different tables or passages of the source. Numbered stars: 1 amine (or outer) side, 2 acyl side, 3 side chain; on linkers, the order of the positions; unused ones are H or OH. Square brackets hold non-standard residues; d marks the D form. Peptide text beside a SMILES is read from it. * marks the point of attachment. X11 = O=C([C@@H](Cc1ccc(O)cc1)N(CCCc1ccccc1)[*:1])[*:2]; X7 = O=C([C@@H](Cc1ccc(O)cc1)NC(=S)NCCc1ccccc1)*; Phenylacetyl(4-Ph) = O=C(Cc1ccc(-c2ccccc2)cc1)*; Diphenylacetyl = O=C(C(c1ccccc1)c1ccccc1)*; Benzoyl(3,5-(OH)2) = O=C(c1cc(O)cc(O)c1)*; Pentanoyl(5-Ph) = O=C(CCCCc1ccccc1)*; Butanoyl(4-Ph) = O=C(CCCc1ccccc1)*; Hydrocinnamoyl = O=C(CCc1ccccc1)*; Tic = O=C(O)[C@@H]1Cc2ccccc2CN1; NHPhenethyl = c1ccc(CCN*)cc1; Pip = O=C(O)[C@@H]1CCCCN1; CO = O=C([*:1])[*:2]

This assay concerns the target T1, human Chemokine like receptor 1 (Homo sapiens, UniProt Q99788).
T1 construct: host or cells: U2OS (Tango CMKLR1-bla U2OS)
T1 sequence (Q99788 1-373): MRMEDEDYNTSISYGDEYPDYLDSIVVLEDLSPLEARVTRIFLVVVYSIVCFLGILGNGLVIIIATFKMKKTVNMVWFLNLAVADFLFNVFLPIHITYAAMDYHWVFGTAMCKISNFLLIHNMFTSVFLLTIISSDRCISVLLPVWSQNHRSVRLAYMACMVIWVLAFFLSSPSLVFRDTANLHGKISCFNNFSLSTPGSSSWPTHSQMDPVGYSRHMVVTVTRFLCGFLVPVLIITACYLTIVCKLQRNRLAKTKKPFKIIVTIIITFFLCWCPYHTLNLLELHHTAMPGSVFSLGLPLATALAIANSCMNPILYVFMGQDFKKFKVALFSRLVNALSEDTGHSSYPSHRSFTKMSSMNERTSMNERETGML
As to the kind of experiment: Activation of Tango CMKLR1-bla U2OS cells (beta-lactamase FRET reporter). It is filed as cell-based. As to the method: The polypeptide sequences described above are the polypeptide sequences disclosed in the patent JP2010-229093A of BANYU PHARMA CO LTD: (D-Tyr)-Phe-Leu-Pro-(D-Ser)-Gln-Phe-(D-Ala)-Tic-Ser was used as a positive control (SEQ ID NO: 102).
The activation of the compound on Tango™ CMKLR1-bla U2OS cells (Invitrogen Cat. nos. K1551) was tested.
The activation of each compound in the above experiments on Tango™ CMKLR1-bla U2OS cells was determined as follows:
Day 1: Cell Seeding on Plate
2. The medium was removed, and the cells were washed with DPBS twice, followed by addition of 3 mL of 0.05% trypsin, and placed in a 37° C., 5% CO2 incubator (Thermo Fisher, Waltham, Massachusetts, USA) for 3-5 minutes. After the cells were rounded, 3-5 mL of medium (medium formula: DMEM 90%, Dialyzed FBS 10%, NEAA 0.1 mM, HEPES (pH 7.3) 25 mM, Penicillin 100 U/mL, Streptomycin 100 μg/mL) was added to terminate digestion.
2. The digested cells were transferred to a 15 mL centrifuge tube (430790, Corning), centrifuged at 1000 rpm for 5 minutes (5810R, Eppendorf, Hamburg, Germany), and the supernatant was discarded.
3. 7 mL of medium (DMEM+10% FBS) was added, blowed into a single cell suspension, counted by a cell counter, and adjusted the cell suspension to a desired cell density of 250,000/mL with the medium.
4. The cell suspension was seeded into a 384-well cell plate (Corning 3712) in 40 μL/well to make the number of cells 10000 cells/well, and 32 μL of medium was added to the blank control.
5. The incubation was performed overnight at 37° C. under 5% CO2.
Day 2: Dosing and Testing
1. Preparation of 200× Compound Plate
1.1 The test compound was formulated into a 10 mM working solution in DMSO.
1.2 45 μL of 10 mM test compound was added to the 2nd column of rows A to P in the Echo-384 well plate. The compound was subjected to a 3-fold dilution with Precision (30 μL of DMSO was added to the 3rd to 11th columns; 15 μL of the drug solution was pipetted from the 2nd column to the 3rd column, blown and evenly mixed; then 15 μL of the drug solution was pipetted from the 3rd column to the 4th column, blown and evenly mixed; the drugs was subjected to a 3-fold dilution to obtain 10 concentrations in total). The 1st and 12th columns of the Echo-384 well plate were supplemented with 30 μL of DMSO.
2. Preparation of Intermediate Plate
500 nL, i.e., 0.5 μL of the diluted compound (or DMSO) in the 200× compound plate was transferred into the corresponding position of V-bottom 384-well plate with Echo. 20 μL of medium was added to each well, centrifuged, shaken and evenly mixed. The concentration of the drugs in each well of the 2nd to 11th column of intermediate plate (i.e., 5× compound plate) were shown in following Table 4.
3.1 The cell plate was taken out from the incubator and observed under a microscope. The diluted compound or DMSO in the intermediate plate was added to the cell plate in 10 μL/well in the corresponding cell plate, and 40 μL of medium was pre-filled in each well.
3.2 The cells were incubated at 37° C. under 5% CO2 for 4 hours.
4.1 1 mM CCF4-AM, solution B, Solution C, and Solution D were used to prepare an appropriate amount of 6× detection solution. The LiveBLAzer™-FRET B/G Loading kit (K1095, Thermo Fisher, Waltham, Massachusetts, USA) kit containing CCF-4AM and solutionB, solutionC, and solutionD was also purchased from invitrogen (K1157, Thermo Fisher, Waltham, Massachusetts, USA).
4.2 The cells were observed under a microscope and the cell plate was equilibrated to room temperature.
4.3 6 μL of CCF-4AM dissolved solution A, 60 μL of solution B, 904 μL of solution C and 30 μL of solution D were pipetted in an EP tube, blown, and evenly mixed to obtain a 6× detection solution. The prepared 6× detection solution was pipetted to a 384-well plate in 10 μL/well.

Setting [1] is: determination by the method of Effect Embodiment 1, read-out: EC50.

For the compound `CC(C)C[C@H](NC(=O)[C@H](Cc1ccccc1)NC(=O)[C@@H](Cc1ccc(O)cc1)NC(=O)CCc1ccccc1)C(=O)N1CCC[C@H]1C(=O)N[C@H](CO)C(=O)N[C@@H](CCC(N)=O)C(=O)N[C@@H](Cc1ccccc1)C(=O)N[C@H](C)C(=O)N1Cc2ccccc2C[C@H]1C(=O)N[C@@H](CO)C(=O)O` [YW-71, 3-phenylpropanoyl-(D-Tyr)-Phe-Leu-Pro-(D-Ser)-Gln-Phe-(D-Ala)-Tic-Ser-OH] (Hydrocinnamoyl-[dY]FLP[dS]QF[dA][Tic]S-OH), the EC50 under setting [1] is 31 nM. As for `CC(C)C[C@H](NC(=O)[C@H](Cc1ccccc1)NC(=O)[C@@H](Cc1ccc(O)cc1)NC(=O)NCCc1ccccc1)C(=O)N1CCC[C@H]1C(=O)N[C@H](CO)C(=O)N[C@@H](CCC(N)=O)C(=O)N[C@@H](Cc1ccccc1)C(=O)N[C@H](C)C(=O)N1Cc2ccccc2C[C@H]1C(=O)N[C@@H](CO)C(=O)O` [YW-72, Phenethylcarbamoyl-(D-Tyr)-Phe-Leu-Pro-(D-Ser)-Gln-Phe-(D-Ala)-Tic-Ser-OH] ({NHPhenethyl-CO}-[dY]FLP[dS]QF[dA][Tic]S-OH), the 50% effective concentration (EC50) under setting [1] amounted to 45 nM. As for `CC(C)C[C@H](NC(=O)[C@H](Cc1ccccc1)NC(=O)[C@@H](Cc1ccc(O)cc1)NC(=S)NCCc1ccccc1)C(=O)N1CCC[C@H]1C(=O)N[C@H](CO)C(=O)N[C@@H](CCC(N)=O)C(=O)N[C@@H](Cc1ccccc1)C(=O)N[C@H](C)C(=O)N1Cc2ccccc2C[C@H]1C(=O)N[C@@H](CO)C(=O)O` [YW-73, Phenethylcarbamothioyl-(D-Tyr)-Phe-Leu-Pro-(D-Ser)-Gln-Phe-(D-Ala)-Tic-Ser-OH] (X7-FLP[dS]QF[dA][Tic]S-OH), the EC50 under setting [1] is 28 nM. Regarding `CC(C)C[C@H](NC(=O)[C@H](Cc1ccccc1)NC(=O)[C@@H](Cc1ccc(O)cc1)NCCCc1ccccc1)C(=O)N1CCC[C@H]1C(=O)N[C@H](CO)C(=O)N[C@@H](CCC(N)=O)C(=O)N[C@@H](Cc1ccccc1)C(=O)N[C@H](C)C(=O)N1Cc2ccccc2C[C@H]1C(=O)N[C@@H](CO)C(=O)O` [YW-74, 3-Phenylpropyl-(D-Tyr)-Phe-Leu-Pro-(D-Ser)-Gln-Phe-(D-Ala)-Tic-Ser-OH] (H-[X11]FLP[dS]QF[dA][Tic]S-OH), the EC50 under setting [1] amounted to 6.2 nM. For `CC(C)C[C@H](NC(=O)[C@H](Cc1ccccc1)NC(=O)[C@@H](Cc1ccc(O)cc1)NC(=O)CCCc1ccccc1)C(=O)N1CCC[C@H]1C(=O)N[C@H](CO)C(=O)N[C@@H](CCC(N)=O)C(=O)N[C@@H](Cc1ccccc1)C(=O)N[C@H](C)C(=O)N1Cc2ccccc2C[C@H]1C(=O)N[C@@H](CO)C(=O)O` [YW-75, 4-Phenylbutanoyl-(D-Tyr)-Phe-Leu-Pro-(D-Ser)-Gln-Phe-(D-Ala)-Tic-Ser-OH] ({Butanoyl(4-Ph)}-[dY]FLP[dS]QF[dA][Tic]S-OH), the 50% effective concentration (EC50) under setting [1] turned out to be 50 nM. On the same count and under the same terms, the figure for `CC(C)C[C@H](NC(=O)[C@H](Cc1ccccc1)NC(=O)[C@@H](Cc1ccc(O)cc1)NC(=O)CCCCc1ccccc1)C(=O)N1CCC[C@H]1C(=O)N[C@H](CO)C(=O)N[C@@H](CCC(N)=O)C(=O)N[C@@H](Cc1ccccc1)C(=O)N[C@H](C)C(=O)N1Cc2ccccc2C[C@H]1C(=O)N[C@@H](CO)C(=O)O` [YW-76, 5-phenylvaleroyl-(D-Tyr)-Phe-Leu-Pro-(D-Ser)-Gln-Phe-(D-Ala)-Tic-Ser-OH] ({Pentanoyl(5-Ph)}-[dY]FLP[dS]QF[dA][Tic]S-OH) is 43 nM.

`CC(C)C[C@H](NC(=O)[C@H](Cc1ccccc1)NC(=O)[C@@H](Cc1ccc(O)cc1)NC(=O)Cc1ccc(-c2ccccc2)cc1)C(=O)N1CCC[C@H]1C(=O)N[C@H](CO)C(=O)N[C@@H](CCC(N)=O)C(=O)N[C@@H](Cc1ccccc1)C(=O)N[C@H](C)C(=O)N1Cc2ccccc2C[C@H]1C(=O)N[C@@H](CO)C(=O)O` [YW-77, 4-biphenylacetyl-(D-Tyr)-Phe-Leu-Pro-(D-Ser)-Gln-Phe-(D-Ala)-Tic-Ser-OH] ({Phenylacetyl(4-Ph)}-[dY]FLP[dS]QF[dA][Tic]S-OH) came in with a concentration for a half-maximal effect (EC50) of 53 nM. Still for that read-out and setting: the figure for `CC(C)C[C@H](NC(=O)[C@H](Cc1ccccc1)NC(=O)[C@@H](Cc1ccc(O)cc1)NC(=O)C(c1ccccc1)c1ccccc1)C(=O)N1CCC[C@H]1C(=O)N[C@H](CO)C(=O)N[C@@H](CCC(N)=O)C(=O)N[C@@H](Cc1ccccc1)C(=O)N[C@H](C)C(=O)N1Cc2ccccc2C[C@H]1C(=O)N[C@@H](CO)C(=O)O` [YW-78, diphenylacetyl-(D-Tyr)-Phe-Leu-Pro-(D-Ser)-Gln-Phe-(D-Ala)-Tic-Ser-OH] (Diphenylacetyl-[dY]FLP[dS]QF[dA][Tic]S-OH) is 26 nM. For the compound `CC(C)C[C@H](NC(=O)[C@H](Cc1ccccc1)NC(=O)[C@@H](Cc1ccc(O)cc1)NC(=O)c1cc(O)cc(O)c1)C(=O)N1CCC[C@H]1C(=O)N[C@H](CO)C(=O)N[C@@H](CCC(N)=O)C(=O)N[C@@H](Cc1ccccc1)C(=O)N[C@H](C)C(=O)N1Cc2ccccc2C[C@H]1C(=O)N[C@@H](CO)C(=O)O` [YW-79, 3,5-dihydroxybenzoyl-(D-Tyr)-Phe-Leu-Pro-(D-Ser)-Gln-Phe-(D-Ala)-Tic-Ser-OH] ({Benzoyl(3,5-(OH)2)}-[dY]FLP[dS]QF[dA][Tic]S-OH), the EC50 under setting [1] turned out to be 4.7 nM.

Take `CC(C)C[C@H](NC(=O)[C@H](Cc1ccccc1)NC(=O)[C@H](N)Cc1ccc(O)cc1)C(=O)N1CCC[C@H]1C(=O)N[C@H](CO)C(=O)N[C@@H](CCC(N)=O)C(=O)N[C@@H](Cc1ccccc1)C(=O)N[C@H](C)C(=O)N1CCCC[C@H]1C(=O)N[C@@H](CO)C(=O)O` [YW-90, (D-Tyr)-Phe-Leu-Pro-(D-Ser)-Gln-Phe-(D-Ala)-HoPro-Ser-OH] (H-[dY]FLP[dS]QF[dA][Pip]S-OH): the 50% effective concentration (EC50) under setting [1] was > 50000 nM. Consider `CC(C)C[C@H](NC(=O)[C@H](Cc1ccccc1)NC(=O)[C@H](N)Cc1ccc(O)cc1)C(=O)N1CCCC[C@H]1C(=O)N[C@H](CO)C(=O)N[C@@H](CCC(N)=O)C(=O)N[C@@H](Cc1ccccc1)C(=O)N[C@H](C)C(=O)N1Cc2ccccc2C[C@H]1C(=O)N[C@@H](CO)C(=O)O` [YW-96, (D-Tyr)-Phe-Leu-(S-Pip)-(D-Ser)-Gln-Phe-(D-Ala)-Tic-Ser] (H-[dY]FL[Pip][dS]QF[dA][Tic]S-OH; N-terminus assumed), for which it took 39 nM to reach a half-maximal effect (EC50).

With `CC(C)C[C@H](NC(=O)[C@H](Cc1ccccc1)NC(=O)[C@H](N)Cc1ccccc1)C(=O)N1CCC[C@H]1C(=O)N[C@H](CO)C(=O)N[C@@H](CCC(N)=O)C(=O)N[C@@H](Cc1ccccc1)C(=O)N[C@H](C)C(=O)N1Cc2ccccc2C[C@H]1C(=O)N[C@@H](CO)C(=O)O` [YW-97, (D-Phe)-Phe-Leu-Pro-(D-Ser)-Gln-Phe-(D-Ala)-Tic-Ser-OH] (H-[dF]FLP[dS]QF[dA][Tic]S-OH), the EC50 under setting [1] worked out at 50 nM.

In general, EC50 refers to the concentration that produces a half-maximal response.
